Assay results published in patent publication US8648111B2, “N1-2-thiophene-2-ylethyl-N2-substituted biguanide derivate, preparation method thereof, and pharmaceutical composition containing the same as active ingredients” (Hanall Biopharma Co., Ltd., priority 2008, dated 2014).
Read-outs that look alike come from different tables or passages of the source.

Legend:
Format in all cases: cell-based
C2C12 cells = assay: Measurement of glucose absorption ability (3H-deoxy-glucose uptake with insulin); conditions: 100 uM compound with 1 μM insulin, 24 hours, differentiated C2C12, higher value = stronger, more than 200% counts as glucose absorption ability
Experimental: (§1) 2 mM metformin was used as a comparative compound for each of the plates (control group).
C2C12 cells (ATCC: American Type Culture Collection), a muscle cell model, were induced to differentiate into muscle cells in 2% bovine fetal serum-containing media (DMEM (Gibco), FBS (Gibco)) for 6 days. The C2C12 cells which differentiated into muscle cells were transferred to serum-free low glucose media (DMEM (Gibco), FBS (Gibco)), treated with 100 μM of each of the compounds, and then cultured with 1 μM of insulin for 24 hours. After cultivation, the cells were treated with 1 μCi ^3H-deoxy-glucose (Amersham Pharmacia) and 10 μM deoxy-glucose (Sigma) at 37° C. for 15 minutes. The media were removed therefrom, and the cells were washed twice with PBS (phosphate buffered saline). The washed cells were treated with 0.1N NaOH and neutralized with 1N HCl. The content of glucose absorbed into the cells was measured with a liquid scintillation counter.
A higher measurement value means a stronger ability to reduce insulin resistance.

HepG2 cells [1] = assay: Measurement of cholesterol synthesis inhibitory ability (cholesterol content in cell lysates, Amplex red)
Experimental: as §1
A cholesterol synthesis inhibitory ability, which is an important function of AMPK (AMP-activated protein kinase), was measured using HepG2 cells (ATCC: American Type Culture Collection) as a hepatic cell model according to the following procedure.
The hepatic cell model HepG2 cells were cultured in 1% serum-containing media (DMEM (Gibco), FBS (Gibco)) for 24 hours, and then treated with 100 μM or 500 μM of each of the compounds prepared in Examples for 24 hours. Then, the cells were disrupted with a lysis solution (0.1 M potassium phosphate, pH 7.4, 0.05 M NaCl, 5 mM cholic acid, 0.1% Triton X-100 (Sigma)). To the disrupted cells was added the same volume of a reaction solution (2 U/mL of a cholesterol oxidizing agent, 2 U/mL of a peroxidase, 0.2 U/mL of a cholesterol esterase, and 300 μM of Amplex red as a fluorescent factor (Molecular Probe)), which was allowed to react at 37° C. for 30 minutes. After completion of the reaction, the content of cholesterol formed in the cell lysates was measured at a wavelength of 560/590 nm (ex/em) using a fluorescence microscope.
A lower measurement value means an increased cholesterol synthesis inhibitory ability.

HepG2 cells [2] = assay: Measurement of triglyceride (triglyceride content in cell lysates, Amplex red)
Experimental: as §1
HepG2 cells (ATCC: American Type Culture Collection) were cultured in 1% serum-containing media (DMEM (Gibco), FBS (Gibco)) for 24 hours, and then treated with 100 μM or 500 μM of each of the compounds prepared in Examples for 24 hours. Then, the cells were disrupted with a lysis solution (0.1 M potassium phosphate, pH 7.4, 0.05 M NaCl, 5 mM cholic acid, 0.1% Triton X-100). […] After completion of the reaction, the content of triglyceride formed in the cell lysates was measured at a wavelength of 560/590 nm (ex/em) using a fluorescence microscope.
A lower measurement value means an increased triglyceride synthesis inhibitory ability.

HepG2 cells [3] = assay: Measurement of gluconeogenesis inhibitory ability (14C-lactate, glucose formed in cells)
Experimental: as §1
HepG2 cells (ATCC: American Type Culture Collection) were cultured in 10% serum-containing high glucose media, transferred to no serum-containing low glucose media (DMEM (Gibco), FBS (Gibco)), and then treated with 100 μM of each of the compounds for 24 hours. Then, the cells were treated with 0.5 μCi ^14C-lactate (Amersham Pharmacia) and 10 mM L-lactate (Sigma), and cultured for 4 hours. After cultivation, the media were removed therefrom, and the cells were washed with PBS, treated with 0.1N NaOH and kept at room temperature for 1 hour. Then, the cells were neutralized with 1N HCl, and the content of glucose formed in the cells was measured with a liquid scintillation counter.
A lower measurement value means an increased gluconeogenesis inhibitory ability.

[4] = 100 uM compound, 24 hours, HepG2, lower value = stronger cholesterol synthesis inhibition, hydrochloride
[5] = 500 uM compound, 24 hours, HepG2, lower value = stronger cholesterol synthesis inhibition, hydrochloride
[6] = 100 uM compound, 24 hours, HepG2, lower value = stronger triglyceride synthesis inhibition, hydrochloride
[7] = 500 uM compound, 24 hours, HepG2, lower value = stronger triglyceride synthesis inhibition, hydrochloride
[8] = 100 uM compound, 24 hours, HepG2, lower value = stronger gluconeogenesis inhibition, hydrochloride, 100 µM
[9] = 100 uM compound, 24 hours, HepG2, lower value = stronger cholesterol synthesis inhibition
[10] = 500 uM compound, 24 hours, HepG2, lower value = stronger cholesterol synthesis inhibition
[11] = 100 uM compound, 24 hours, HepG2, lower value = stronger triglyceride synthesis inhibition
[12] = 500 uM compound, 24 hours, HepG2, lower value = stronger triglyceride synthesis inhibition
[13] = 100 uM compound, 24 hours, HepG2, lower value = stronger gluconeogenesis inhibition

| Compound | Glucose absorption (100 uM) Aver. (C2C12 cells) | Cholesterol (100 uM) Aver. (HepG2 cells [1]; [9]) | Cholesterol (500 uM) Aver. (HepG2 cells [1]; [10]) | Triglyceride (100 uM) Aver. (HepG2 cells [2]; [11]) | Triglyceride (500 uM) Aver. (HepG2 cells [2]; [12]) | Gluconeogenesis inhibition (100 uM) Aver. (HepG2 cells [3]; [13]) | further results |
| --- | --- | --- | --- | --- | --- | --- | --- |
| COc1ccc(OC)c(N=C(NCCc2cccs2)NC(=N)N)c1.Cl [Example 31, N1-2-(thiophen-2-ylethyl)-N2-(2,5-dimethoxyphenyl) biguanide hydrochloride] |  |  |  |  |  |  | Glucose absorption (100 uM) Aver. (C2C12 cells; hydrochloride): 168.20%; Cholesterol (100 uM) Aver. (HepG2 cells [1]; [4]): 75.67; Cholesterol (500 uM) Aver. (HepG2 cells [1]; [5]): 49.39; Triglyceride (100 uM) Aver. (HepG2 cells [2]; [6]): 81.74; Triglyceride (500 uM) Aver. (HepG2 cells [2]; [7]): 57.32; Gluconeogenesis inhibition (100 uM) Aver. (HepG2 cells [3]; [8]): 96.29 |
| CC(C)N=C(NCCc1cccs1)NC(=N)N.Cl [Example 41, N1-2-(thiophen-2-ylethyl)-N2-isopropyl biguanide hydrochloride] | 150.65% | 87.73 | 75.54 | 93.91 | 81.62 | 97.81 |  |
| CN=C(NCCc1cccs1)NC(=N)N.Cl [Example 12, N1-2-(thiophen-2-ylethyl)-N2-methyl biguanide hydrochloride (isomer)] | 221.61% | 69.94 |  | 67.43 |  |  | Gluconeogenesis inhibition (100 uM) Aver. (HepG2 cells [3]; 100 uM compound, 24 hours, HepG2, lower value = stronger gluconeogenesis inhibition, 100 µM): 13.05 |
| Cl.N=C(N)NC(=Nc1cc(Cl)cc(Cl)c1)NCCc1cccs1 [Example 39, N1-2-(thiophen-2-ylethyl)-N2-(3,5-dichlorophenyl) biguanide hydrochloride] | 188.26% | 69.65 | 61.03 | 73.50 | 72.66 | 13.04 |  |
| C=CCN=C(NCCc1cccs1)NC(=N)N.Cl [Example 44, N1-2-(thiophen-2-ylethyl)-N2-allyl biguanide hydrochloride] | 87.78% |  |  |  |  |  | Cholesterol (100 uM) Aver. (HepG2 cells [1]): 85.73; Cholesterol (500 uM) Aver. (HepG2 cells [1]): 82.40; Triglyceride (100 uM) Aver. (HepG2 cells [2]): 96.99; Triglyceride (500 uM) Aver. (HepG2 cells [2]): 74.60; Gluconeogenesis inhibition (100 uM) Aver. (HepG2 cells [3]): 77.80 |
| N1-2-(thiophen-2-ylethyl)-N2-cyclohexyl biguanide hydrochloride [Example 6] | 56.15% |  |  |  |  |  | Cholesterol (100 uM) Aver. (HepG2 cells [1]): 30.58; Cholesterol (500 uM) Aver. (HepG2 cells [1]): 0.51; Triglyceride (100 uM) Aver. (HepG2 cells [2]): 51.00; Triglyceride (500 uM) Aver. (HepG2 cells [2]): −1.71; Gluconeogenesis inhibition (100 uM) Aver. (HepG2 cells [3]): 33.59 |
| CCCCCN=C(NCCc1cccs1)NC(=N)N.Cl [Example 23, N1-2-(thiophen-2-ylethyl)-N2-pentyl biguanide hydrochloride] | 0.00% | 11.05 | 15.66 | 13.83 | 17.16 | 2.96 |  |
| CCCCCCN=C(NCCc1cccs1)NC(=N)N.Cl [Example 4, N1-2-(thiophen-2-ylethyl)-N2-hexyl biguanide hydrochloride] | 14.31% | 33.81 | 51.74 | 22.80 | 3.22 | 26.40 |  |
| CC(C)(C)c1ccc(N=C(NCCc2cccs2)NC(=N)N)cc1.Cl [Example 28, N1-2-(thiophen-2-ylethyl)-N2-(4-t-butylphenyl) biguanide hydrochloride] | 4.29% | 27.49 | 26.60 | 15.55 | 15.21 | 2.57 |  |
| Cl.N=C(N)NC(=NCc1ccccc1)NCCc1cccs1 [Example 8, N1-2-(thiophen-2-ylethyl)-N2-t-benzyl biguanide hydrochloride] | 243.3% | 37.77 | 7.28 | 77.65 | 30.78 | 81.27 |  |
| Cc1ccc(CN=C(NCCc2cccs2)NC(=N)N)cc1.Cl [Example 40, N1-2-(thiophen-2-ylethyl)-N2-(4-methylbenzyl) biguanide hydrochloride] | 75.38% |  |  |  |  |  | Cholesterol (100 uM) Aver. (HepG2 cells [1]): 72.58; Cholesterol (500 uM) Aver. (HepG2 cells [1]): 57.11; Triglyceride (100 uM) Aver. (HepG2 cells [2]): 84.73; Triglyceride (500 uM) Aver. (HepG2 cells [2]): 60.37; Gluconeogenesis inhibition (100 uM) Aver. (HepG2 cells [3]): 81.23 |
| Cl.N=C(N)NC(=Nc1ccc(Br)cc1)NCCc1cccs1 [Example 33, N1-2-(thiophen-2-ylethyl)-N2-(4-bromophenyl) biguanide hydrochloride] | 14.24% | 24.52 | 31.66 | 29.12 | 27.48 | 17.03 |  |
| CC(C)(C)CC(C)(C)N=C(NCCc1cccs1)NC(=N)N.Cl [Example 2, N1-2-(thiophen-2-ylethyl)-N2-t-octyl biguanide hydrochloride] | 10.46% | 63.63 | 55.38 | 29.21 | −1.92 | 68.28 |  |
| COc1ccc(N=C(NCCc2cccs2)NC(=N)N)cc1.Cl [Example 15, N1-2-(thiophen-2-ylethyl)-N2-(4-methoxy)phenyl biguanide hydrochloride] |  |  |  |  |  |  | Glucose absorption (100 uM) Aver. (C2C12 cells; hydrochloride): 124.3%; Cholesterol (100 uM) Aver. (HepG2 cells [1]; [4]): 67.3; Cholesterol (500 uM) Aver. (HepG2 cells [1]; [5]): 39.7; Triglyceride (100 uM) Aver. (HepG2 cells [2]; [6]): 76.6; Triglyceride (500 uM) Aver. (HepG2 cells [2]; [7]): 41.4; Gluconeogenesis inhibition (100 uM) Aver. (HepG2 cells [3]; [8]): 86.69 |
| CCCCN=C(NCCc1cccs1)NC(=N)N.Cl [Example 25, N1-2-(thiophen-2-ylethyl)-N2-butyl biguanide hydrochloride] |  |  |  |  |  |  | Glucose absorption (100 uM) Aver. (C2C12 cells; hydrochloride): 2.76%; Cholesterol (100 uM) Aver. (HepG2 cells [1]; [4]): 32.66; Cholesterol (500 uM) Aver. (HepG2 cells [1]; [5]): 19.87; Triglyceride (100 uM) Aver. (HepG2 cells [2]; [6]): 19.21; Triglyceride (500 uM) Aver. (HepG2 cells [2]; [7]): 17.02; Gluconeogenesis inhibition (100 uM) Aver. (HepG2 cells [3]; [8]): 0.00 |
| Cl.N=C(N)NC(=Nc1ccc(F)cc1)NCCc1cccs1 [Example 18, N1-2-(thiophen-2-ylethyl)-N2-(4-fluorophenyl) biguanide hydrochloride] | 88.16% | 50.3 | 23.4 | 67.0 | 39.5 | 86.69 |  |
| Cl.N=C(N)NC(=NC1CCCC1)NCCc1cccs1 [Example 21, N1-2-(thiophen-2-ylethyl)-N2-cyclopentyl biguanide hydrochloride] | 174.8% | 68.2 | 45.8 | 80.5 | 85.6 | 97.66 |  |
